Test: Moisture sorption analysis (DVS) of crystal Form B of apremilast
Format: physicochemical
Source text: FIG. 3B depicts a representative DVS plot of crystal Form B of apremilast.
The crystalline apremilast formed in the disclosed processes can be any crystalline form. Various crystalline apremilast forms are described in detail in PCT Publication No. WO 2009/120167, the disclosure of which is incorporated by reference in its entirety. In various embodiments, the crystalline apremilast formed by the processes disclosed herein can be Form A, Form B, or Form F. In some cases, the crystalline apremilast is Form B. Form B may be characterized by X-ray powder diffraction analysis. In certain embodiments, Form B is characterized by XRPD peaks located at one, two, three, four, five, six, seven, eight, nine, ten, eleven or twelve of the following approximate positions: 10.1, 12.4, 13.5, 15.7, 16.3, 18.1, 20.7, 22.5, 24.7, 26.2, 26.9, 29.1 degrees 2θ. […] In certain embodiments, Form B may be characterized by thermal analysis. In certain embodiments, Form B is characterized by a DSC plot comprising an endothermic event with an onset temperature of about 154° C. In certain embodiments, Form B is characterized by a TGA plot comprising a mass loss of less than about 1%, e.g., about 0.25%, of the total mass of the sample upon heating from about 25° C. to about 140° C. […] In certain embodiments, Form B is anhydrous. In certain embodiments, Form B is unsolvated. In certain embodiments, Form B may be characterized by moisture sorption analysis. […] In certain embodiments, mass gained upon adsorption is lost when the RH is decreased back to about 0% RH.

CCOc1cc(C(CS(C)(=O)=O)N2C(=O)c3cccc(NC(C)=O)c3C2=O)ccc1OC (single isomer, unassigned; (+)) [Form B, (+)-2-[1-(3-ethoxy-4-methoxyphenyl)-2-methylsulfonylethyl]-4-acetylaminoisoindoline-1,3-dione]
stability with respect to humidity: stable with respect to humidity | XRPD pattern following the adsorption/desorption analysis (after adsorption/desorption analysis): substantially unchanged | hygroscopicity (moisture sorption analysis): substantially nonhygroscopic
